ChEMBL document CHEMBL3227999, “Synthesis and biological properties of N2-substituted spin-labeled analogues of actinomycin D” (J Med Chem, 1979)
Calls of active or inactive are those of the source. The calls are words filed in the database; no cut-off is given here. Numbered stars: 1 amine (or outer) side, 2 acyl side, 3 side chain; on linkers, the order of the positions; unused ones are H or OH. Bridge positions count the residues as written; N and C are the ends. Square brackets hold non-standard residues; d marks the D form. Peptide text beside a SMILES is read from it. I, II: the chains in the order shown. Actinocin(9to1) = Cc1c2oc3c(C)ccc(C(=O)[*:1])c3nc-2c(C(=O)[*:2])c(N)c1=O; NMeV = CN[C@H](C(=O)O)C(C)C; Sar = CNCC(=O)O

How the values were obtained:
[1] = molecular target: T1, Bacterial DNA-directed RNA polymerase (Bacteria) (UniProt P0A8V2+P0A7Z4+P0A8T7+P0A800); test: Inhibition of Escherichia coli DNA-dependent RNA polymerase at 0.25 ug/ml using Micrococcus luteus DNA as primer; type: protein-complex assay
T1 sequence (P0A7Z4 whole entry partner): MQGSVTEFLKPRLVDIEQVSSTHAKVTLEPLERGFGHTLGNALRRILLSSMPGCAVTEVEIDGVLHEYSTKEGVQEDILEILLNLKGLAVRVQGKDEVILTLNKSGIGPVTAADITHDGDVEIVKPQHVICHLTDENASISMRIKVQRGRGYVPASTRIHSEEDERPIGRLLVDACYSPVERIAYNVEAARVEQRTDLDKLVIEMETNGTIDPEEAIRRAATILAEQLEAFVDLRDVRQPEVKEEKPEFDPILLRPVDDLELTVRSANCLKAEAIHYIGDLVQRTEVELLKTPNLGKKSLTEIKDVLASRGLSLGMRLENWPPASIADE
T1 sequence (P0A800 2-91 partner limits assumed): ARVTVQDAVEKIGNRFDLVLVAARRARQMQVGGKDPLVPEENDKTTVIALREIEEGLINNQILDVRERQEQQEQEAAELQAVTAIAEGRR
T1 sequence (P0A8T7 whole entry partner): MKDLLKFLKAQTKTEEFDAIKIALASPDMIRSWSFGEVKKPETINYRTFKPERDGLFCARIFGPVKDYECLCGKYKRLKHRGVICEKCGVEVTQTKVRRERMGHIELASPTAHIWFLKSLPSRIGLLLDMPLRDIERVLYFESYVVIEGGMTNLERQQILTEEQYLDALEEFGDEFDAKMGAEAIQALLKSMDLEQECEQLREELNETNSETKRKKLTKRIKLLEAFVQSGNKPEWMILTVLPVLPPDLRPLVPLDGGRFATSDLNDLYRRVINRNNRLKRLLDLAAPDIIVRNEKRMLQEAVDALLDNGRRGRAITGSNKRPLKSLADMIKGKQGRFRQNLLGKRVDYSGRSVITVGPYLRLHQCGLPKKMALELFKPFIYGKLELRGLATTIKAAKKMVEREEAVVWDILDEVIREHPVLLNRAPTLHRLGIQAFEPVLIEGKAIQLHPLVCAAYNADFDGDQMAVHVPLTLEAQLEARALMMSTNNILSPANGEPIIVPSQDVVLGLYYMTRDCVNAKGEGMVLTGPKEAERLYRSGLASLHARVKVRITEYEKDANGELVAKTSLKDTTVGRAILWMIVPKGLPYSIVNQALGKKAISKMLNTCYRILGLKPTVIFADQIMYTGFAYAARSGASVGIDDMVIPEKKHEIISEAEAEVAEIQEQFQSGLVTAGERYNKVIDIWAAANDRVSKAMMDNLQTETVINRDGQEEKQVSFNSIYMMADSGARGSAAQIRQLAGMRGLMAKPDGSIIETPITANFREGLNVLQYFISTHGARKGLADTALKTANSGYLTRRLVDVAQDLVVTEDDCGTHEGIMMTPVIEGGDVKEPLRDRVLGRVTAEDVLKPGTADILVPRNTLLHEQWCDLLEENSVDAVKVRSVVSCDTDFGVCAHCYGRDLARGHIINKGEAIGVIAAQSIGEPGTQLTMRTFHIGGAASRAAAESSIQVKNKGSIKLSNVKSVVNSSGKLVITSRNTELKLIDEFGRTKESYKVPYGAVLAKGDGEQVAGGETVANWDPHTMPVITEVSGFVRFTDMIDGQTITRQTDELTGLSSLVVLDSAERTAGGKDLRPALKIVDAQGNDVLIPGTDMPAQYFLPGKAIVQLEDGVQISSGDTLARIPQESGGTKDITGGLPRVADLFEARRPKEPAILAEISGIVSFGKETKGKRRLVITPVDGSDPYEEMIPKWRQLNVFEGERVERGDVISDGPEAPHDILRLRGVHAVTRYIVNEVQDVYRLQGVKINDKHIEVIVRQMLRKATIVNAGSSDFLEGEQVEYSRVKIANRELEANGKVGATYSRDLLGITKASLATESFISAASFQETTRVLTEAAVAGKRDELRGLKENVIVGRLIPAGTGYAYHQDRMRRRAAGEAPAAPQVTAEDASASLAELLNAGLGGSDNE
T1 sequence (P0A8V2 whole entry): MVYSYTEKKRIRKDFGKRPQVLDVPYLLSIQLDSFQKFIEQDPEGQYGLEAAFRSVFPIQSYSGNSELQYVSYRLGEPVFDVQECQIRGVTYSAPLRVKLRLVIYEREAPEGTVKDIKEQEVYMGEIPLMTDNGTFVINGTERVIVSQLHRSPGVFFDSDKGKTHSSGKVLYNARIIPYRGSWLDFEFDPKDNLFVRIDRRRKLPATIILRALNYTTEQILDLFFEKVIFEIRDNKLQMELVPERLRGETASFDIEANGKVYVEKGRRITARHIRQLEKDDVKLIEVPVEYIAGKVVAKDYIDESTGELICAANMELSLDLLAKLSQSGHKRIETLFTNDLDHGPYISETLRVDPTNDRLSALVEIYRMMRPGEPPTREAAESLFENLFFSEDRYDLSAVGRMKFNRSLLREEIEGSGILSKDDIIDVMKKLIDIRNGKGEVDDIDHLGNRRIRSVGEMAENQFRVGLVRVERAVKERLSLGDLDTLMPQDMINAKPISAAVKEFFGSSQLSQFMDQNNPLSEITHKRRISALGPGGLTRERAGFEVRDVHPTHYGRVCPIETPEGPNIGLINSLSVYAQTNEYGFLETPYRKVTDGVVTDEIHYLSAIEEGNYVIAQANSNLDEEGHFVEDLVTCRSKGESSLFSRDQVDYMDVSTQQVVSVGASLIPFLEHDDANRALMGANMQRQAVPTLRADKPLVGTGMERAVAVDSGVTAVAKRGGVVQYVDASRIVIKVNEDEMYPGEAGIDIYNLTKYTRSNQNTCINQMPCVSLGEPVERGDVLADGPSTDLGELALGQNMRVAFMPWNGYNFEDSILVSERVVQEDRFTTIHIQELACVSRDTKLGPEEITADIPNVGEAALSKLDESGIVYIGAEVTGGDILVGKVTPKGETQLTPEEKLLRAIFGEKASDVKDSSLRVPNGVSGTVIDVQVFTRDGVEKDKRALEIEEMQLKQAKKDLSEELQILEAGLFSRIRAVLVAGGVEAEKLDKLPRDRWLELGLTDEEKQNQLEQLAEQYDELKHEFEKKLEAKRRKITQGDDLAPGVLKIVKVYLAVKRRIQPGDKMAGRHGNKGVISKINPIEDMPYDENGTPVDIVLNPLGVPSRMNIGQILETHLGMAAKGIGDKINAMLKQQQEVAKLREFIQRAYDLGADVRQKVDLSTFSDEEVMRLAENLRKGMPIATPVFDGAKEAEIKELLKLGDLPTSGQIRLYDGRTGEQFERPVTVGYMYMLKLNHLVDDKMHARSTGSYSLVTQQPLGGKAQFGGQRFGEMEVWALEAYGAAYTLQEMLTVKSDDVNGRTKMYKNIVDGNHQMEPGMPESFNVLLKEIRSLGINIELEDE

[2] = molecular target: T1, Bacterial DNA-directed RNA polymerase (Bacteria); test: Inhibition of Escherichia coli DNA-dependent RNA polymerase at 0.05 ug/ml using calf thymus DNA as primer; type: protein-complex assay
[3] = system: P388; test: Antitumor activity against mouse P388 cells allografted in CDF1 mouse assessed as survival at 0.18 mg/kg, ip administered on day 1, 5 and 9; type: functional; conditions: route intraperitoneal
[4] = molecular target: T1, Bacterial DNA-directed RNA polymerase (Bacteria); test: Inhibition of Escherichia coli DNA-dependent RNA polymerase at 0.1 ug/ml using calf thymus DNA as primer; type: protein-complex assay
[5] = system: P388; test: Antitumor activity against mouse P388 cells allografted in CDF1 mouse assessed as survival at 0.12 mg/kg, ip administered on day 1, 5 and 9; type: functional; conditions: route intraperitoneal
[6] = molecular target: T1, Bacterial DNA-directed RNA polymerase (Bacteria); test: Inhibition of Escherichia coli DNA-dependent RNA polymerase at 0.05 ug/ml using Micrococcus luteus DNA as primer; type: protein-complex assay
[7] = molecular target: T1, Bacterial DNA-directed RNA polymerase (Bacteria); test: Inhibition of Escherichia coli DNA-dependent RNA polymerase at 1 ug/ml using Micrococcus luteus DNA as primer; type: protein-complex assay
[8] = molecular target: Bacterial DNA-directed RNA polymerase (Bacteria, UniProt P0A7Z4+P0A800+P0A8T7+P0A8V2); test: Inhibition of Escherichia coli DNA-dependent RNA polymerase; type: protein-complex assay
[9] = molecular target: T1, Bacterial DNA-directed RNA polymerase (Bacteria); test: Inhibition of Escherichia coli DNA-dependent RNA polymerase at 5 ug/ml using calf thymus DNA as primer; type: protein-complex assay
[10] = molecular target: T1, Bacterial DNA-directed RNA polymerase (Bacteria); test: Inhibition of Escherichia coli DNA-dependent RNA polymerase at 20 ug/ml using Micrococcus luteus DNA as primer; type: protein-complex assay
[11] = system: Mus musculus; test: Toxicity in mouse P388 cells allografted CDF1 mouse assessed as mortality at 0.27 mg/kg, ip administered on day 1, 5 and 9; type: organism-based; parameters: dose 0.27 mg/kg, route intraperitoneal; conditions: in vivo
[12] = system: L1210; test: Cytotoxicity against mouse L1210 cells at 5 ug/ml after 48 hrs; type: functional; conditions: L1210, 48 h
[13] = system: P388; test: Antitumor activity against mouse P388 cells allografted in CDF1 mouse assessed as survival at 0.4 mg/kg, ip administered on day 1, 5 and 9; type: functional; conditions: route intraperitoneal
[14] = system: Mus musculus; test: Toxicity in mouse P388 cells allografted CDF1 mouse assessed as mortality at 0.6 mg/kg, ip administered on day 1, 5 and 9; type: organism-based; parameters: dose 0.6 mg/kg, route intraperitoneal; conditions: in vivo
[15] = system: Calf thymus DNA; test: Binding affinity to calf thymus DNA at 1 x 10^-5 M by thermal denaturation assay; type: nucleic-acid assay; conditions: Bos taurus
[16] = system: Calf thymus DNA; test: Binding affinity to calf thymus DNA at 1 x 10^-5 M after 30 mins by circular dichroism analysis; type: nucleic-acid assay; conditions: Bos taurus
[17] = system: P388; test: Antitumor activity against mouse P388 cells allografted in CDF1 mouse assessed as survival at 0.08 mg/kg, ip administered on day 1, 5 and 9; type: functional; conditions: route intraperitoneal
[18] = molecular target: T1, Bacterial DNA-directed RNA polymerase (Bacteria); test: Inhibition of Escherichia coli DNA-dependent RNA polymerase at 0.25 ug/ml using calf thymus DNA as primer; type: protein-complex assay
[19] = molecular target: T1, Bacterial DNA-directed RNA polymerase (Bacteria); test: Inhibition of Escherichia coli DNA-dependent RNA polymerase at 2.5 ug/ml using calf thymus DNA as primer; type: protein-complex assay
[20] = system: L1210; test: Cytotoxicity against mouse L1210 cells at 0.05 ug/ml after 48 hrs; type: functional; conditions: L1210, 48 h
[21] = system: L1210; test: Cytotoxicity against mouse L1210 cells at 0.1 ug/ml after 48 hrs; type: functional; conditions: L1210, 48 h
[22] = molecular target: T1, Bacterial DNA-directed RNA polymerase (Bacteria); test: Inhibition of Escherichia coli DNA-dependent RNA polymerase at 0.5 ug/ml using Micrococcus luteus DNA as primer; type: protein-complex assay
[23] = system: Mus musculus; test: Toxicity in mouse P388 cells allografted CDF1 mouse assessed as weight loss at 0.18 mg/kg, ip administered on day 1, 5 and 9; type: organism-based; parameters: dose 0.18 mg/kg, route intraperitoneal; conditions: in vivo
[24] = molecular target: T1, Bacterial DNA-directed RNA polymerase (Bacteria); test: Inhibition of Escherichia coli DNA-dependent RNA polymerase at 5 ug/ml using Micrococcus luteus DNA as primer; type: protein-complex assay
[25] = molecular target: T1, Bacterial DNA-directed RNA polymerase (Bacteria); test: Inhibition of Escherichia coli DNA-dependent RNA polymerase at 2.5 ug/ml using Micrococcus luteus DNA as primer; type: protein-complex assay
[26] = system: P388; test: Antitumor activity against mouse P388 cells allografted in CDF1 mouse assessed as survival at 0.27 mg/kg, ip administered on day 1, 5 and 9; type: functional; conditions: route intraperitoneal
[27] = system: L1210; test: Cytotoxicity against mouse L1210 cells at 0.5 ug/ml after 48 hrs; type: functional; conditions: L1210, 48 h
[28] = system: L1210; test: Cytotoxicity against mouse L1210 cells at 0.01 ug/ml after 48 hrs; type: functional; conditions: L1210, 48 h
[29] = molecular target: T1, Bacterial DNA-directed RNA polymerase (Bacteria); test: Inhibition of Escherichia coli DNA-dependent RNA polymerase at 0.1 ug/ml using Micrococcus luteus DNA as primer; type: protein-complex assay
[30] = system: P388; test: Antitumor activity against mouse P388 cells allografted in CDF1 mouse assessed as survival at 0.6 mg/kg, ip administered on day 1, 5 and 9; type: functional; conditions: route intraperitoneal
[31] = molecular target: T1, Bacterial DNA-directed RNA polymerase (Bacteria); test: Inhibition of Escherichia coli DNA-dependent RNA polymerase at 20 ug/ml using calf thymus DNA as primer; type: protein-complex assay
[32] = system: L1210; test: Cytotoxicity against mouse L1210 cells at 1 ug/ml after 48 hrs; type: functional; conditions: L1210, 48 h
[33] = molecular target: T1, Bacterial DNA-directed RNA polymerase (Bacteria); test: Inhibition of Escherichia coli DNA-dependent RNA polymerase at 1 ug/ml using calf thymus DNA as primer; type: protein-complex assay
[34] = system: L1210; test: Cytotoxicity against mouse L1210 cells at 0.001 ug/ml after 48 hrs; type: functional; conditions: L1210, 48 h
[35] = molecular target: T1, Bacterial DNA-directed RNA polymerase (Bacteria); test: Inhibition of Escherichia coli DNA-dependent RNA polymerase at 0.5 ug/ml using calf thymus DNA as primer; type: protein-complex assay
[36] = system: L1210; test: Cytotoxicity against mouse L1210 cells at 10 ug/ml after 48 hrs; type: functional; conditions: L1210, 48 h
[37] = system: Mus musculus; test: Toxicity in mouse P388 cells allografted CDF1 mouse assessed as mortality at 0.4 mg/kg, ip administered on day 1, 5 and 9; type: organism-based; parameters: dose 0.4 mg/kg, route intraperitoneal; conditions: in vivo
[38] = molecular target: T1, Bacterial DNA-directed RNA polymerase (Bacteria); test: Inhibition of Escherichia coli DNA-dependent RNA polymerase at 10 ug/ml using Micrococcus luteus DNA as primer; type: protein-complex assay
[39] = molecular target: T1, Bacterial DNA-directed RNA polymerase (Bacteria); test: Inhibition of Escherichia coli DNA-dependent RNA polymerase at 10 ug/ml using calf thymus DNA as primer; type: protein-complex assay

Cc1c2oc3c(C)ccc(C(=O)N[C@@H]4C(=O)N[C@H](C(C)C)C(=O)N5CCC[C@H]5C(=O)N(C)CC(=O)N(C)[C@@H](C(C)C)C(=O)O[C@@H]4C)c3nc-2c(C(=O)N[C@@H]2C(=O)N[C@H](C(C)C)C(=O)N3CCC[C@H]3C(=O)N(C)CC(=O)N(C)[C@@H](C(C)C)C(=O)O[C@@H]2C)c(N)c1=O [DACTINOMYCIN] (I: T[dV]P[Sar][NMeV] / II: T[dV]P[Sar][NMeV]; ester I:1-I:C, II:1-II:C; linker I:N-II:N via Actinocin(9to1))
inhibition [1]: 44%
inhibition [2]: 17%
Survival [3]: 18 days
T/C [3]: 171%
inhibition [4]: 30%
Survival [5]: 19 days
T/C [5]: 181%
inhibition [6]: 7%
inhibition [7]: 72%
IC50 [8]: 159 nM
inhibition [9]: 93%
inhibition [10]: 99%
Activity [11]: Toxic
inhibition at 5 µg/mL [12]: 99%
Survival [13]: 8 days
T/C [13]: 76%
Activity [14]: Toxic
ΔTm [15]: 8.7 °C
Activity [16]: Active
Survival [17]: 15 days
T/C [17]: 143%
inhibition [18]: 62%
inhibition [19]: 89%
inhibition at 0.05 µg/mL [20]: 78%
inhibition at 0.1 µg/mL [21]: 78%
inhibition [22]: 54%
Activity [23]: Toxic
inhibition [24]: 95%
inhibition [25]: 92%
Survival [26]: 10 days
T/C [26]: 95%
inhibition at 0.5 µg/mL [27]: 99%
inhibition at 0.01 µg/mL [28]: 57%
inhibition [29]: 16%
Survival [30]: 5 days
T/C [30]: 48%
inhibition [31]: 100%
inhibition at 1 µg/mL [32]: 97%
inhibition [33]: 79%
inhibition at 0.001 µg/mL [34]: 51%
inhibition [35]: 61%
inhibition at 10 µg/mL [36]: 98%
Activity [37]: Toxic
inhibition [38]: 99%
inhibition [39]: 96%
